The subject of the experiment is NPY2R. As to the kind of experiment: Ca^2+ imaging, NPY2R‐HEK293T cells. Particulars: PYY (3-36) per Fig. S2B, Fluo‐8 AM, Ringer's solution pH 7.4, ΔF/F0, n = 10. Format: cell-based, human. As to the method:
HEK293T cells (Lenti‐X 293T Cell line; TaKaRa, Shiga, Japan) were maintained in Dulbecco's Modified Eagle Medium (DMEM; Fujifilm Wako Pure Chemical Industries, Osaka, Japan) supplemented with 10% fetal bovine serum (Biowest, Nuaillé, France), 1% non‐essential amino acids (NEAA) (Fujifilm Wako Pure Chemical Industries), and 1% penicillin–streptomycin (P/S) (Fujifilm Wako Pure Chemical Industries) and cultured in non‐coated culture plates at 37 °C and in an incubator with 5% CO2. The culture medium was replaced every 2–3 days. At 80–90% confluence, the cell colonies were digested into single cells using TrypLE Express (Thermo Fisher Scientific). The resulting cells were used for lentiviral transfection and agonist experiments.
Figure S1 presents the protocol used for this experiment. Lentiviral vectors were acquired from VectorBuilder (VectorBuilder Japan, Inc., Kanagawa, Japan). […]
Transduced HEK293T and neurons were incubated with 10 μM Fluo‐8 AM, a calcium indicator (AAT Bioquest, Pleasanton, CA, USA), in each culture medium (Cell lines and cell culture and Induction to parasympathetic neurons sections) at 37 °C for 30 min. […] Fluorescence (excitation: 490 nm, emission: 525 nm) was detected using a confocal spinning disk confocal laser scanning unit (CSU‐W1; Yokogawa Electric, Tokyo, Japan) and an LED light (X‐Cite 120LED; Opto Science, Tokyo, Japan). […]

The values below come from paper PMC10761937, “Functional engineering of human iPSC‐derived parasympathetic neurons enhances responsiveness to gastrointestinal hormones” (FEBS Open Bio, 2023).

On to “PYY: PYY (4400‐v; Peptide Institute, Inc.); PYY (3–36) in Ca2+ imaging”, for which the “Concentration giving response (increased intracellular Ca^2+ concentration)” value is more than 10 nM.
